In this data set the test system is pustular psoriasis, gangrenous pyoderma, capillitium erosive dermatitis and Dick & Syme syndrome. As to conditions: 200 mg/day for 3 weeks, followed by 100 mg/day for three weeks. As to the method: Double blind clinical studies were carried out on patients suffering from pustular psoriasis, gangrenous pyoderma, capillitium erosive dermatitis and Dick & Syme syndrome. Patients were treated with Nimesulide, at a dosage of 200 mg/day for 3 weeks, followed by 100 mg/day for three weeks.
At the end of the treatment, the following parameters were evaluated: number of the skin lesions extent of the skin lesions relief from pain at the nodule sites

Setting [1] is: patients, at the end of the treatment.

Experimental findings from patent US20020032236A1, “Method for the treatment of dermatological diseases by using nimesulide” (priority 2000, published 2002) are described below.

Each structure is given as a SMILES string.

Turning to `CS(=O)(=O)Nc1ccc([N+](=O)[O-])cc1Oc1ccccc1` [Nimesulide], the “remission of the "disease"” value (in some cases) is given as “complete remission”. The side effects result (patients) is on record as “no side effects were observed”. Under setting [1], the “effectiveness in the treatment of the "diseases"” value is on record as “statistically effective”, the “extent of the skin lesions” value was “regression of the skin lesions”, the “number of the skin lesions” value is “regression of the skin lesions” and the “relief from pain at the nodule sites” value is “almost complete disappearance of pain”.
